# From USRE39862E1, “Unsaturated 14, 15-cyclopropanoandrostanes, a method for their production and pharmaceutical compositions containing these compounds” (Schering AG, priority 2000, dated 2007)
# Columns and labels:
# [1] = molecular target: T1, androgen receptor of the rat prostate (Rattus norvegicus, UniProt P15207); test: binding to the androgen receptor of the rat prostate (reference substance R 1881); conditions: reference substance 17β-hydroxy-17α-methyl-estra-4,9,11-triene-3-one (R 1881)
# T1 construct: to the androgen receptor of the rat prostate; from tissue; host or cells: rat prostate
# T1 sequence (P15207 1-902): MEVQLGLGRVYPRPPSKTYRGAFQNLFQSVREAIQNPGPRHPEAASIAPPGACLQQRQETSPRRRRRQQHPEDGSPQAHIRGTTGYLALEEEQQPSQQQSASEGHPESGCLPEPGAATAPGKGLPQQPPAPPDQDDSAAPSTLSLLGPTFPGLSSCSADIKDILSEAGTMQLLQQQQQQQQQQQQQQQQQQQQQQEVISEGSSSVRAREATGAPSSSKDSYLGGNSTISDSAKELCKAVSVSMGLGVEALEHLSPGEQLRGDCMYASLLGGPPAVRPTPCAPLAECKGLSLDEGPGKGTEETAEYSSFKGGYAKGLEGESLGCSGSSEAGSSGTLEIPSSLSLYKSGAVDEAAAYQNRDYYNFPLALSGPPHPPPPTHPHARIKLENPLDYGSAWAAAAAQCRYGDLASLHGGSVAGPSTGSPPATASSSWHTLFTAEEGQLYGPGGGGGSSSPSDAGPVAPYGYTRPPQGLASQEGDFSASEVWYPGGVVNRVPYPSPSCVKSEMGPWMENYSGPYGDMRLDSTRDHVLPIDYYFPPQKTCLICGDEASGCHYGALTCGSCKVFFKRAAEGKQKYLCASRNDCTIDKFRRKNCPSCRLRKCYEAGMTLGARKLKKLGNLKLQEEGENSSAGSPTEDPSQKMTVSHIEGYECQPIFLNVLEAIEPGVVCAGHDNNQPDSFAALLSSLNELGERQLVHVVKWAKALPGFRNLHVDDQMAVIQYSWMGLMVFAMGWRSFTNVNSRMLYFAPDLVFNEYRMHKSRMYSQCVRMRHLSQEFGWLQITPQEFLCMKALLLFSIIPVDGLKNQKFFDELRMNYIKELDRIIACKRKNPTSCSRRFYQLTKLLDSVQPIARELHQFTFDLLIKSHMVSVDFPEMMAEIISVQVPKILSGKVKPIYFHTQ
# Text: The 4-chloro-17β-hydroxy-14α,15α-methylene-androst-4-ene-3-one binds to the extent of 42%±3% to the androgen receptor of the rat prostate (reference substance. 17β-hydroxy-17α-methyl-estra-4,9,11-triene-3-one; R 1881).
# Hershberger test = conditions: in vivo
# [2] = pregnancy maintenance test; conditions: in vivo
# [3] = molecular target: T2, progesterone receptor of the rabbit uterus (Oryctolagus cuniculus, UniProt P06186); test: binding to the progesterone receptor of the rabbit uterus (reference substance progesterone)
# T2 construct: from tissue; host or cells: rabbit uterus
# T2 sequence (P06186 1-930): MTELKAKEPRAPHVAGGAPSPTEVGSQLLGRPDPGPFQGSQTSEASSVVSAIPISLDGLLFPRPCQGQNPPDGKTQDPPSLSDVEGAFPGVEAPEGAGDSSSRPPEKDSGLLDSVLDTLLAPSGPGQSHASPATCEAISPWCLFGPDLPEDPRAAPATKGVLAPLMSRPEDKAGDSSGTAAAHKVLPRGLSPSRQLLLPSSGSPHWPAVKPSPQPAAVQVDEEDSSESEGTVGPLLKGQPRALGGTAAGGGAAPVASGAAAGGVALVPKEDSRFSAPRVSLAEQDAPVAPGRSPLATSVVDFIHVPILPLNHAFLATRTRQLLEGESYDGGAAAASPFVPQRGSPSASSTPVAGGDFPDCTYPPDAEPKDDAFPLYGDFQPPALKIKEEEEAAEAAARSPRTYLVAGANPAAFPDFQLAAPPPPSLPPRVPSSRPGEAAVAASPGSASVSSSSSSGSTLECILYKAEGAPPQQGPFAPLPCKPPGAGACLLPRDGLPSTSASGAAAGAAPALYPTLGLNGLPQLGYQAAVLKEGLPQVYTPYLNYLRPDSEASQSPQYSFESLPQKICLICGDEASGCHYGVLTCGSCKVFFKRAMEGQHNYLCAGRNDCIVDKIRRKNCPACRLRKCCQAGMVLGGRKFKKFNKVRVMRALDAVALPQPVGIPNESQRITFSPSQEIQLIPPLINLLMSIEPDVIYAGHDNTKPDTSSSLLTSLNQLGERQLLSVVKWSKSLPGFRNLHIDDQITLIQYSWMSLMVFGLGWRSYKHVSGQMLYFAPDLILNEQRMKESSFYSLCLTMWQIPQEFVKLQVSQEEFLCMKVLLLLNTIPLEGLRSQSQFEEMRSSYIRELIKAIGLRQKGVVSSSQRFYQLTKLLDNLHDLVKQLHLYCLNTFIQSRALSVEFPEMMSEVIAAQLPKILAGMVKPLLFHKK
structure (smiles),measurement,setting,value
"C[C@]12CCC(=O)C(Cl)=C1CC[C@@H]1[C@@H]2CC[C@]2(C)[C@@H](O)C[C@@H]3C[C@]312 [Example 3, 4-Chloro-17β-hydroxy-14α,15α-methylene-androst-4-ene-3-one]",binds to the extent of ... to the androgen receptor,[1],42%±3%
same,androgenic activity in the Hershberger test,Hershberger test,distinct androgenic activity
same,gestagenic activity in the pregnancy maintenance test,[2],hardly any gestagenic activity
same,binding to the progesterone receptor,[3],practically no binding
